Test results published in US8791129B2, “Phenylquinazoline derivatives” (Merck Patent GmbH, priority 2010, dated 2014).
pIC50: −log10 of the molar value.

Each molecule was assayed against T1, Recombinant human HSP90α (Homo sapiens, UniProt P07900) (assay: Radioligand filter binding test with [3H]17AAG for the measurement of HSP90 inhibitors). Conditions: competition with [3H]17AAG 0.08 μM; HSP90 1.5 μg/assay; 22° C., 30 min; read-out: IC50 (HSP90 inhibition).
T1 construct: host or cells: E. coli
Excerpt: Test Method for the Measurement of HSP90 Inhibitors
The binding of geldanamycin or 17-allylamino-17-demethoxygeldanamycin (17AAG) to HSP90 and competitive inhibition thereof can be utilised in order to determine the inhibitory activity of the compounds according to the invention (Carreras et al. 2003, Chiosis et al. 2002).
In the specific case, a radioligand filter binding test is used. The radioligand used here is tritium-labelled 17-allylaminogeldanamycin, [3H]17AAG. This filter binding test allows a targeted search for inhibitors which interfere with the ATP binding site.
Recombinant human HSP90α (E. coli expressed, 95% purity);
[3H]17AAG (17-allylaminogeldanamycin, [allylamino-2,3-^3H. Specific activity: 1.11×10^12 Bq/mmol (Moravek, MT-1717);
HEPES filter buffer (50 mM HEPES, pH 7.0, 5 mM MgCl2, BSA 0.01%)
Multiscreen FB (1 μm) filter plate (Millipore, MAFBNOB 50).
The 96-well microtitre filter plates are firstly irrigated and coated with 0.1% of polyethyleneimine.
The test is carried out under the following conditions:
Reaction temperature 22° C.
Reaction time: 30 min., shaking at 800 rpm
50 mM HEPES HCl, pH 7.0, 5 mM MgCl2, 0.01% (w/v) of BSA
At the end of the reaction, the supernatant in the filter plate is removed by suction with the aid of a vacuum manifold (Multiscreen Separation System, Millipore), and the filter is washed twice.
The filter plates are then measured in a beta counter (Microbeta, Wallac) with scintillator (Microscint 20, Packard).
“% of control” is determined from the “counts per minutes” values, and the IC-50 value of a compound is calculated therefrom.
In the case of `CN(CCO)Cc1ccccc1-c1ccc2nc(N)nc(C(=O)N3Cc4ccccc4C3)c2c1`, the pIC50 was 6.00 to 8.00. Work on `CCN(CCO)Cc1ccccc1-c1ccc2nc(N)nc(C(=O)N3Cc4ccccc4C3)c2c1` yielded a pIC50 of 6.00 to 8.00. `Nc1nc(C(=O)N2Cc3ccccc3C2)c2cc(-c3ccccc3CN3CCC(O)CC3)ccc2n1` was tested, and the pIC50 was 6.00 to 8.00. `CC(C)(C)NCc1ccccc1-c1ccc2nc(N)nc(C(=O)N3Cc4ccccc4C3)c2c1` showed a pIC50 of 6.00 to 8.00. `Nc1nc(C(=O)N2Cc3ccccc3C2)c2cc(-c3ccccc3CN3CCCC3)ccc2n1` gave a pIC50 of 6.00 to 8.00. `CC1CCCN1Cc1ccccc1-c1ccc2nc(N)nc(C(=O)N3Cc4ccccc4C3)c2c1` (centres unmarked) showed a pIC50 of 6.00 to 8.00. `Nc1nc(C(=O)N2Cc3ccccc3C2)c2cc(-c3ccccc3CN3CCC(CO)C3)ccc2n1` (centres unmarked) gave a pIC50 of 6.00 to 8.00. `Nc1nc(C(=O)N2Cc3ccccc3C2)c2cc(-c3ccccc3CN3CCC(O)C3)ccc2n1` (centres unmarked) gave a pIC50 of 6.00 to 8.00. `Nc1nc(C(=O)N2Cc3ccccc3C2)c2cc(-c3ccccc3CN3CCC(N)C3)ccc2n1` (centres unmarked) gave a pIC50 of 6.00 to 8.00. With `CCN(C)Cc1ccccc1-c1ccc2nc(N)nc(C(=O)N3Cc4ccccc4C3)c2c1` the pIC50 was 6.00 to 8.00. `CCN(CC)Cc1ccccc1-c1ccc2nc(N)nc(C(=O)N3Cc4ccccc4C3)c2c1` was tested, and the pIC50 was 6.00 to 8.00. In the case of `CNC(=O)C1CCCN1Cc1ccccc1-c1ccc2nc(N)nc(C(=O)N3Cc4ccccc4C3)c2c1` (centres unmarked), the pIC50 was 6.00 to 8.00. `Nc1nc(C(=O)N2Cc3ccccc3C2)c2cc(-c3ccccc3CN3CCCC3C(=O)NCCO)ccc2n1` (centres unmarked) was tested, and the pIC50 was 6.00 to 8.00. `Nc1nc(C(=O)N2Cc3ccccc3C2)c2cc(-c3ccccc3CNC3CC3)ccc2n1` was tested, and the pIC50 was 6.00 to 8.00. `Nc1nc(C(=O)N2Cc3ccccc3C2)c2cc(-c3ccccc3CNC3CCC3)ccc2n1` gave a pIC50 of 6.00 to 8.00. Molecule `Nc1nc(C(=O)N2Cc3ccccc3C2)c2cc(-c3ccccc3CN3CCC(F)(F)C3)ccc2n1` has a pIC50 of 6.00 to 8.00. `CC1CCC(C)N1Cc1ccccc1-c1ccc2nc(N)nc(C(=O)N3Cc4ccccc4C3)c2c1` (centres unmarked) was tested, and the pIC50 was 6.00 to 8.00. `Nc1nc(C(=O)N2Cc3ccccc3C2)c2cc(-c3ccccc3CN3CC[C@H](F)C3)ccc2n1` showed a pIC50 of 6.00 to 8.00. Molecule `C[C@@H]1CCCN1Cc1ccccc1-c1ccc2nc(N)nc(C(=O)N3Cc4ccccc4C3)c2c1` has a pIC50 of 6.00 to 8.00. Molecule `CC(C)(C)NCc1cc(F)ccc1-c1ccc2nc(N)nc(C(=O)N3Cc4ccccc4C3)c2c1` has a pIC50 of 6.00 to 8.00. Molecule `CC1CCCN1Cc1cc(F)ccc1-c1ccc2nc(N)nc(C(=O)N3Cc4ccccc4C3)c2c1` (centres unmarked) has a pIC50 of 6.00 to 8.00. With `CC1CCCN1Cc1ccc(F)cc1-c1ccc2nc(N)nc(C(=O)N3Cc4ccccc4C3)c2c1` (centres unmarked) the pIC50 was 6.00 to 8.00. Work on `CC(C)(C)NCc1ccc(F)cc1-c1ccc2nc(N)nc(C(=O)N3Cc4ccccc4C3)c2c1` yielded a pIC50 of 6.00 to 8.00. `NC(=O)CNCc1ccccc1-c1ccc2nc(N)nc(C(=O)N3Cc4ccccc4C3)c2c1` gave a pIC50 of 6.00 to 8.00. In the case of `Nc1nc(C(=O)N2Cc3ccccc3C2)c2cc(-c3ccccc3CN(CCO)CCO)ccc2n1`, the pIC50 was 6.00 to 8.00. In the case of `C[C@H]1CCCN1Cc1ccccc1-c1ccc2nc(N)nc(C(=O)N3Cc4ccccc4C3)c2c1`, the pIC50 was 6.00 to 8.00. Molecule `CN(Cc1ccccc1-c1ccc2nc(N)nc(C(=O)N3Cc4ccccc4C3)c2c1)C1CC1` has a pIC50 of 6.00 to 8.00. In the case of `CCN(C)Cc1ccc(F)cc1-c1ccc2nc(N)nc(C(=O)N3Cc4ccccc4C3)c2c1`, the pIC50 was 6.00 to 8.00. With `CN1CCN(Cc2ccc(F)cc2-c2ccc3nc(N)nc(C(=O)N4Cc5ccccc5C4)c3c2)CC1` the pIC50 was 6.00 to 8.00. `CN1CCN(Cc2cc(F)ccc2-c2ccc3nc(N)nc(C(=O)N4Cc5ccccc5C4)c3c2)CC1` was tested, and the pIC50 was 6.00 to 8.00. `CCN(CCO)Cc1ccc(F)cc1-c1ccc2nc(N)nc(C(=O)N3Cc4ccccc4C3)c2c1` showed a pIC50 of 6.00 to 8.00. `CC(C)(C)NCc1cc(F)c(F)cc1-c1ccc2nc(N)nc(C(=O)N3Cc4ccccc4C3)c2c1` gave a pIC50 of 6.00 to 8.00. `CCN(C)Cc1cc(F)c(F)cc1-c1ccc2nc(N)nc(C(=O)N3Cc4ccccc4C3)c2c1` gave a pIC50 of 6.00 to 8.00. `CCN(CC)Cc1cc(F)c(F)cc1-c1ccc2nc(N)nc(C(=O)N3Cc4ccccc4C3)c2c1` gave a pIC50 of 6.00 to 8.00. `Nc1nc(C(=O)N2Cc3ccccc3C2)c2cc(-c3cc(F)c(F)cc3CN3CCCC3)ccc2n1` showed a pIC50 of 6.00 to 8.00. Molecule `CC1CCC(C)N1Cc1cc(F)c(F)cc1-c1ccc2nc(N)nc(C(=O)N3Cc4ccccc4C3)c2c1` (centres unmarked) has a pIC50 of 6.00 to 8.00. `CC1CCCN1Cc1cc(F)c(F)cc1-c1ccc2nc(N)nc(C(=O)N3Cc4ccccc4C3)c2c1` (centres unmarked) gave a pIC50 of 6.00 to 8.00. With `CN(Cc1cc(F)c(F)cc1-c1ccc2nc(N)nc(C(=O)N3Cc4ccccc4C3)c2c1)C(C)(C)C` the pIC50 was 6.00 to 8.00. For `CN1CCN(Cc2cc(F)c(F)cc2-c2ccc3nc(N)nc(C(=O)N4Cc5ccccc5C4)c3c2)CC1`, the pIC50 was 6.00 to 8.00. With `CCN(CC)Cc1ccc(F)cc1-c1ccc2nc(N)nc(C(=O)N3Cc4ccccc4C3)c2c1` the pIC50 was 6.00 to 8.00. `Nc1nc(C(=O)N2Cc3ccccc3C2)c2cc(-c3cc(F)ccc3CN3CCC(O)CC3)ccc2n1` showed a pIC50 of 6.00 to 8.00. Molecule `CC(C)(C)NCc1cc2c(cc1-c1ccc3nc(N)nc(C(=O)N4Cc5ccccc5C4)c3c1)OCO2` has a pIC50 of 6.00 to 8.00. `COc1cc(CO)c(-c2ccc3nc(N)nc(C(=O)N4Cc5ccccc5C4)c3c2)cc1OC` gave a pIC50 of 5.00 to 6.00. In the case of `NCc1cc(F)c(F)cc1-c1ccc2nc(N)nc(C(=O)N3Cc4ccccc4C3)c2c1`, the pIC50 was 6.00 to 8.00. Work on `NCCC(=O)NCc1cc(F)c(F)cc1-c1ccc2nc(N)nc(C(=O)N3Cc4ccccc4C3)c2c1` yielded a pIC50 of 6.00 to 8.00. `CN(C)CCC(=O)NCc1cc(F)c(F)cc1-c1ccc2nc(N)nc(C(=O)N3Cc4ccccc4C3)c2c1` showed a pIC50 of 6.00 to 8.00. In the case of `NCCC(=O)OCc1cc(F)c(F)cc1-c1ccc2nc(N)nc(C(=O)N3Cc4ccccc4C3)c2c1`, the pIC50 was 6.00 to 8.00. For `CN(C)CCCOCc1cc(F)c(F)cc1-c1ccc2nc(N)nc(C(=O)N3Cc4ccccc4C3)c2c1`, the pIC50 was 6.00 to 8.00. `CN(C)CCOCc1cc(F)c(F)cc1-c1ccc2nc(N)nc(C(=O)N3Cc4ccccc4C3)c2c1` showed a pIC50 of 6.00 to 8.00. Molecule `NCCCOCc1cc(F)c(F)cc1-c1ccc2nc(N)nc(C(=O)N3Cc4ccccc4C3)c2c1` has a pIC50 of 6.00 to 8.00. Work on `Nc1nc(C(=O)N2Cc3ccccc3C2)c2cc(-c3cc(F)c(F)cc3COCCO)ccc2n1` yielded a pIC50 of 6.00 to 8.00. `Nc1nc(C(=O)N2Cc3ccccc3C2)c2cc(-c3cc(F)c(F)cc3COCCOCCOCCO)ccc2n1` showed a pIC50 of 6.00 to 8.00. Molecule `NCCC[C@H](N)C(=O)OCc1cc(F)c(F)cc1-c1ccc2nc(N)nc(C(=O)N3Cc4ccccc4C3)c2c1` has a pIC50 of 6.00 to 8.00. `CN(C)CCC(=O)OCc1cc(F)c(F)cc1-c1ccc2nc(N)nc(C(=O)N3Cc4ccccc4C3)c2c1` gave a pIC50 of 6.00 to 8.00. With `NCCCC[C@H](N)C(=O)OCc1cc(F)c(F)cc1-c1ccc2nc(N)nc(C(=O)N3Cc4ccccc4C3)c2c1` the pIC50 was 6.00 to 8.00. `NOCc1cc(F)c(F)cc1-c1ccc2nc(N)nc(C(=O)N3Cc4ccccc4C3)c2c1` was tested, and the pIC50 was 6.00 to 8.00. Work on `Nc1nc(C(=O)N2Cc3ccccc3C2)c2cc(-c3cc(F)c(F)cc3COP(=O)(O)O)ccc2n1` yielded a pIC50 of 6.00 to 8.00. `NCCCCC(N)C(=O)OCc1ccc(F)cc1-c1ccc2nc(N)nc(C(=O)N3Cc4ccccc4C3)c2c1` (centres unmarked) gave a pIC50 of 6.00 to 8.00. `CC(C)(C)OP(=O)(OCc1cc(F)c(F)cc1-c1ccc2nc(N)nc(C(=O)N3Cc4ccccc4C3)c2c1)OC(C)(C)C` was tested, and the pIC50 was 6.00 to 8.00. `CC(C)CC(N)C(=O)OCc1cc(F)c(F)cc1-c1ccc2nc(N)nc(C(=O)N3Cc4ccccc4C3)c2c1` (centres unmarked) showed a pIC50 of 6.00 to 8.00. Molecule `CC(C)(C)C(=O)OCc1cc(F)c(F)cc1-c1ccc2nc(N)nc(C(=O)N3Cc4ccccc4C3)c2c1` has a pIC50 of 6.00 to 8.00. Work on `CC(C)(C)OC(=O)NCCCCCC(=O)OCc1cc(F)c(F)cc1-c1ccc2nc(N)nc(C(=O)N3Cc4ccccc4C3)c2c1` yielded a pIC50 of 6.00 to 8.00. With `CC(C)(C)OC(=O)N1CCC[C@H]1C(=O)OCc1cc(F)c(F)cc1-c1ccc2nc(N)nc(C(=O)N3Cc4ccccc4C3)c2c1` the pIC50 was 6.00 to 8.00. With `NCCCC[C@H](N)C(=O)OCc1ccccc1-c1ccc2nc(N)nc(C(=O)N3Cc4ccccc4C3)c2c1` the pIC50 was 6.00 to 8.00. Molecule `Nc1nc(C(=O)N2Cc3ccccc3C2)c2cc(-c3cc(F)c(F)cc3COC(=O)[C@@H]3CCCN3)ccc2n1` has a pIC50 of 6.00 to 8.00.
